Consider 3 compounds from patent publication US12122803B2, “Crystalline forms of a neuroactive steroid” (priority 2021, dated 2024).

Format in all cases: physicochemical
The nature of data set [1]: Competitive slurry experiments of Form S1 and Form S4. Particulars: IPA, approximately equal amounts of Form S1 and Form S4. As for the experimental part: To verify the transition temperature between Form S1 and Form S4 of Compound (1) calculated from the DSC data, competitive slurry experiments of Form S1 and Form S4 were performed.
In each experiment, slurries were generated using approximately equal amounts of Form S1 and Form S4. The forms were suspended in 0.3 mL of solvent in a 1.5 mL glass vial. […] The remaining solids were isolated via centrifugation (10000 rpm, 3 min) and analyzed using the XPRD analysis method described above.

Data set [2] in a line: TGA analysis. Particulars: up to 185° C., heating rate 10° C./min. As for the experimental part: (§1) TGA data were collected using a TA Q500 TGA from TA Instruments, and DSC was conducted using a TA Q2000 DSC from TA Instruments. The TGA was calibrated with a nickel reference standard and the DSC was calibrated with an indium reference standard.
Data set [3] in a line: DSC analysis (form conversion under heating). Particulars: TGA/DSC heating. On the procedure:
as §1
Background: In DSC, transitions show as peaks or steps in heat flow.

Data set [4] can be described thus: Dynamic vapor sorption (DVS) analysis. Conditions: for hygroscopicity by DVS / mass uptake by DVS / mass uptake by DVS expressed as equivalents of water: 25° C.; for hygroscopicity by DVS: up to 90% RH; for change of the XRPD pattern of the sample following the DVS analysis: after two sorption/desorption cycles at 25° C.; for mass uptake by DVS / mass uptake by DVS expressed as equivalents of water: at 90% RH. On the procedure:
Approximately 10-20 mg of sample was placed into a mesh vapor sorption balance pan and loaded into a DVS Intrinsic/Advantage dynamic vapor sorption balance by Surface Measurement Systems. The sample was subjected to a ramping profile from 40-90% relative humidity (RH) at 10% increments, maintaining the sample at each step until a stable weight had been achieved (dm/dt 0.004%, minimum step length 30 minutes, maximum step length 500 minutes) at 25° C. After completion of the sorption cycle, the sample was dried using the same procedure to 0% RH and then a second sorption cycle back to 40% RH. Two cycles were performed. The weight change during the sorption/desorption cycles were plotted, allowing for the hygroscopic nature of the sample to be determined. XRPD analysis was then carried out on any solid retained. The microbalance was calibrated monthly using a certified calibration weight and the relative humidity at 25° C. was calibrated against deliquescence point of LiCl, MgCl and NaCl. Data were not corrected for the initial water content of the sample, and data were shown according to the dry mass of the sample at 0% RH.

On to `COC[C@@]1(O)CC[C@H]2[C@@H](CC[C@@H]3[C@@H]2CC[C@]2(C)[C@@H](C(=O)Cn4nnc(C)n4)CC[C@@H]32)C1` [Form S1], for which the “Results: solid form remaining after competitive slurry (XRPD)” value (shortened to “Results: solid form remaining”) in data set [1] (80 ° C., time point not given) is “converted to Form S4”. In addition, the “weight loss on the TGA curve” value in data set [2] stood at 0.1%. Further, in data set [3], the “form conversion under heating conditions (thermal analyses)” value is listed as “converts to Form S4”. Also, in data set [4], the “hygroscopicity by DVS” value is on record as “substantially non-hygroscopic”, the “change of the XRPD pattern of the sample following the DVS analysis” value is on record as “No change”, the “mass uptake by DVS” value is “ca. 0.6 wt. %” and the “mass uptake by DVS expressed as equivalents of water” value is 0.14 eq. water.
Regarding `COC[C@@]1(O)CC[C@H]2[C@@H](CC[C@@H]3[C@@H]2CC[C@]2(C)[C@@H](C(=O)Cn4nnc(C)n4)CC[C@@H]32)C1` [Form S1 and Form S4], the “Results: solid form remaining” value in data set [1] (60 ° C., time point 1 hr) is recorded as “Form S1”; in data set [1] (70 ° C., time point 1 hr), “Form S1”; in data set [1] (80 ° C., time point not given) it was “Form S4”.
Turning to `COC[C@@]1(O)CC[C@H]2[C@@H](CC[C@@H]3[C@@H]2CC[C@]2(C)[C@@H](C(=O)Cn4nnc(C)n4)CC[C@@H]32)C1` [Form S4], the “Results: solid form remaining” value in data set [1] (60 ° C., time point 1 hr) is given as “converted to Form S1”. The “Results: solid form remaining” value in data set [1] (70 ° C., time point 1 hr) is listed as “converted to Form S1”. In addition, the “weight loss on the TGA curve” value in data set [2] worked out at 0.1%. Further, in data set [4], the “hygroscopicity by DVS” value is reported as “non-hygroscopic”, the “change of the XRPD pattern of the sample following the DVS analysis” value is “No change”, the “mass uptake by DVS” value is given as “ca. 0.12 wt. %” and the “mass uptake by DVS expressed as equivalents of water” value is on record as 0.02 eq. water.
